Experimental findings from US20220389010A1, “Novel Triazolopyridine Derivatives and Pharmaceutical Composition Comprising Same” (Daewoong Pharmaceutical Co., Ltd., priority 2019, published 2022) are described below.

The test addresses T1, Recombinant purified human JAK3 (Homo sapiens, UniProt P52333).
T1 construct: purchased Promega V9441
T1 sequence (P52333 1-1124): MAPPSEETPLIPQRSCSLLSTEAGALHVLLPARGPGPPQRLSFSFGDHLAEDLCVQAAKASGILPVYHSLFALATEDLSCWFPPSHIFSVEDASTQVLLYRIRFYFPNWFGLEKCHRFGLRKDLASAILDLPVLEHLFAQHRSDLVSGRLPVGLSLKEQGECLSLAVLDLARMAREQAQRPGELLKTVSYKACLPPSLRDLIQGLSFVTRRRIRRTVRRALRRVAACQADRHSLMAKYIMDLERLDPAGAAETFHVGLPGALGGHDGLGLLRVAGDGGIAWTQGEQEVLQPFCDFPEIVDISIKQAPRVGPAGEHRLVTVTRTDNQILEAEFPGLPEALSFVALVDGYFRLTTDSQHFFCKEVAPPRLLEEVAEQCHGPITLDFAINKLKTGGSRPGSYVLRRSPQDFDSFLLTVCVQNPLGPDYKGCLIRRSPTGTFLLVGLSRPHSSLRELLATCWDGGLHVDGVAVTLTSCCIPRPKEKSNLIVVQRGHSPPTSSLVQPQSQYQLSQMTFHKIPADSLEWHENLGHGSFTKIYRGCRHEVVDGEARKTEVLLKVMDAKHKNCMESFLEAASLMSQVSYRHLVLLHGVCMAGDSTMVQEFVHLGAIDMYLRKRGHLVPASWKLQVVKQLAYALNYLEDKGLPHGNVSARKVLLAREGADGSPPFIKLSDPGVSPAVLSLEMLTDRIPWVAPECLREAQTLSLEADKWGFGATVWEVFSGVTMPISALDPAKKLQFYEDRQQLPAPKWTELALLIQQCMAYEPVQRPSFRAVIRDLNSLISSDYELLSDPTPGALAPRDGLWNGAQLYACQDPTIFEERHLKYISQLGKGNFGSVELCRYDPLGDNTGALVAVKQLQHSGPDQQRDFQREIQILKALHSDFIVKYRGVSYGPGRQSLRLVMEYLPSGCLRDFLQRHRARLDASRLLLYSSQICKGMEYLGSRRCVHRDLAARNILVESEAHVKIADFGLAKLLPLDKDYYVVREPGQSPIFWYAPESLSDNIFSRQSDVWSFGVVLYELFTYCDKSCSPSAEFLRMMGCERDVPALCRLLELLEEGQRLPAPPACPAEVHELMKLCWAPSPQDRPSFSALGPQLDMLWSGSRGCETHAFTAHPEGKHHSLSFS
The experiment in a line: JAK3 inhibitory activity test (ADP-Glo kinase assay). In kind it is biochemical. Conditions: ATP 5 uM, 1 hour incubation at 30° C. Here is the method:
The inhibitory activities against JAK3 were measured for the compounds prepared in the above Examples through in vitro analysis on the ADP Glow (Glo) platform.
Specifically, the inhibitory activities against JAK3 were measured using a JAK3 kinase assay kit (Promega, V9441), which was purchased from Promega. Recombinant purified human JAK3 was diluted with 1× kinase reaction buffer (JAK3: 40 mM Tris-CI, pH 7.5, 20 mM MgCl2, 0.1 mg/mL BSA and 50 uM OTT and added to a 96 well plate (JAK3: final concentration of 4 ng per reaction). The compounds prepared in the previous Examples were treated so as to be finally a 1% DMSO aqueous solution, and a substrate cocktail containing ATP (JAK3: final concentration of 5 uM) and 0.2 ug/ul of Poly(Glu4, Tyri) peptide (JAK3 final concentration) in the total 25 uL reactants was added to a 96-well plate to initiate enzymatic reaction. After incubation (30° C.) for 1 hour, equivalent volume (25 uL per reaction) of ADP Glo was added and incubated (30° C.) for 40 minutes at room temperature. Then, a kinase detection reagent (50 uL per reaction) was added and incubated (30° C.) for 30 minutes at room temperature. The kinase activity was measured by chemiluminescence according to the instructions of ADP Glo kinase assay kit, and the inhibitory activity of the compounds according to the present invention was calculated. For the analysis of the results of each compound, Microsoft Excel was used, and IC50 values were calculated by SigmaPlot software.

Turning to `C=CC(=O)Nc1cccc(Oc2cccc3nc(Nc4ccc(-n5nc(C)cc5C)cc4)nn23)c1` [Example 10, N-(3-(2-(4-(3,5-dimethyl-1H-pyrazol-1-yl)phenylamino)-[1,2,4]triazolo[1,5-a]pyridin-5-yloxy)phenyl)acrylamide], the IC50 amounted to 3.6 nM. For `C=CC(=O)Nc1cccc(Oc2cccc3nc(Nc4ccc5scnc5c4)nn23)c1` [Example 12, N-(3-(2-(benzo[d]thiazol-5-ylamino)-[1,2,4]triazolo[1,5-a]pyridin-5-yloxy)phenyl)acrylamide] the value was 2.6 nM. For `C=CC(=O)Nc1cccc(Oc2cccc3nc(Nc4cccc(-n5nc(C)cc5C)c4)nn23)c1` [Example 9, N-(3-(2-(3-(3,5-dimethyl-1H-pyrazol-1-yl)phenylamino)-[1,2,4]triazolo[1,5-a]pyridin-5-yloxy)phenyl)acrylamide] the value was 10.4 nM; for `C=CC(=O)Nc1cccc(Oc2cccc3nc(Nc4ccc(CN(C)C)cc4)nn23)c1` [Example 16, N-(3-(2-(4-((dimethylamino)methyl)phenylamino)-[1,2,4]triazolo[1,5-a]pyridin-5-yloxy)phenyl)acrylamide], 0.7 nM; for `C=CC(=O)Nc1cccc(Oc2cccc3nc(Nc4ccc(N(C)C)cc4)nn23)c1` [Example 6, N-(3-(2-(4-(dimethylamino)phenylamino)-[1,2,4]triazolo[1,5-a]pyridin-5-yloxy)phenyl)acrylamide], 2.1 nM. On to `C=CC(=O)Nc1cccc(Oc2cccc3nc(Nc4cnn(CCN5CCOCC5)c4)nn23)c1` [Example 19, N-(3-(2-(1-(2-morpholinoethyl)-1H-pyrazol-4-ylamino)-[1,2,4]triazolo[1,5-a]pyridin-5-yloxy)phenyl)acrylamide], for which the IC50 was 5.1 nM. For `C=CC(=O)Nc1ccc(F)c(Oc2cccc3nc(Nc4ccc5ncsc5c4)nn23)c1` [Example 28, N-(3-(2-(benzo[d]thiazol-6-ylamino)-[1,2,4]triazolo[1,5-a]pyridin-5-yloxy)-4-fluorophenyl)acrylamide] the value was 1.2 nM. Under `C=CC(=O)Nc1ccc(F)c(Oc2cccc3nc(Nc4ccc(N5CCOCC5)cc4)nn23)c1` [Example 27, N-(4-fluoro-3-(2-(4-morpholinophenylamino)-[1,2,4]triazolo[1,5-a]pyridin-5-yloxy)phenyl)acrylamide] stands 1.3 nM; under `C=CC(=O)Nc1cccc(Oc2cccc3nc(Nc4cnn(C)c4)nn23)c1` [Example 2, N-(3-(2-(1-methyl-1H-pyrazol-4-ylamino)-[1,2,4]triazolo[1,5-a]pyridin-5-yloxy)phenyl)acrylamide], 1.1 nM; under `C=CC(=O)Nc1cccc(Oc2cccc3nc(Nc4cnc5ccccc5c4)nn23)c1` [Example 24, N-(3-(2-(quinolin-3-ylamino)-[1,2,4]triazolo[1,5-a]pyridin-5-yloxy)phenyl)acrylamide], 15.5 nM. For `C=CC(=O)Nc1cccc(Oc2cccc3nc(Nc4ccc(N5CCOCC5)nc4)nn23)c1` [Example 21, N-(3-(2-(6-morpholinopyridin-3-ylamino)-[1,2,4]triazolo[1,5-a]pyridin-5-yloxy)phenyl)acrylamide] the value was 0.7 nM; for `C=CC(=O)Nc1cccc(Oc2cccc3nc(Nc4cccc(Oc5ccccc5)c4)nn23)c1` [Example 5, N-(3-(2-(3-phenoxyphenylamino)-[1,2,4]triazolo[1,5-a]pyridin-5-yloxy)phenyl)acrylamide], 35.8 nM; for `C=CC(=O)Nc1cccc(Oc2cccc3nc(Nc4cccc(-n5nnnc5C)c4)nn23)c1` [Example 7, N-(3-(2-(3-(5-methyl-1H-tetrazol-1-yl)phenylamino)-[1,2,4]triazolo[1,5-a]pyridin-5-yloxy)phenyl)acrylamide], 1.2 nM. Turning to `CC#CC(=O)Nc1cccc(Oc2cccc3nc(Nc4ccc(N5CCN(C)CC5)cc4)nn23)c1` [Example 20, N-(3-(2-(4-(4-methylpiperazin-1-yl)phenylamino)-[1,2,4]triazolo[1,5-a]pyridin-5-yloxy)phenyl)but-2-ynamide], the IC50 turned out to be 0.6 nM. Consider `C=CC(=O)Nc1cccc(Oc2cccc3nc(Nc4ccc5nc(Cl)sc5c4)nn23)c1` [Example 11, N-(3-(2-(2-chlorobenzo[d]thiazol-6-ylamino)-[1,2,4]triazolo[1,5-a]pyridin-5-yloxy)phenyl)acrylamide], for which the IC50 was found to be 10.3 nM.

Consider `C=CC(=O)Nc1cccc(Oc2cccc3nc(Nc4ccc5ncsc5c4)nn23)c1` [Example 3, N-(3-(2-(benzo[d]thiazol-6-ylamino)-[1,2,4]triazolo[1,5-a]pyridin-5-yloxy)phenyl)acrylamide], for which the IC50 was determined as 2.4 nM. `C=CC(=O)Nc1cccc(Oc2cccc3nc(Nc4ccc(C(=O)N5CCOCC5)cc4)nn23)c1` [Example 17, N-(3-(2-(4-(morpholine-4-carbonyl)phenylamino)-[1,2,4]triazolo[1,5-a]pyridin-5-yloxy)phenyl)acrylamide]: the IC50 came out at 0.7 nM.
